Assay results published in patent publication US20230263825A1, “ANTI-CANCER ACTIVITY OF PERBORATE SALTS” (priority 2020, published 2023).

Assay: Toxicology in rats, oral, histopathology
Format: in vivo
Conditions: rat, in vivo, po
Source text: After 32 days, the rats were sacrificed and their organs were examined under a microscope.

O.O.O.O.[Na+].[O-]B1OO1 [sodium perborate tetrahydrate]
0%: HEART Notable or abnormal, % (0.125 mg/kg) | INTESTINE, Large Notable or abnormal, % (0.125 mg/kg) | INTESTINE, Small Notable or abnormal, % (0.125 mg/kg) | KIDNEY Edema, % (0.125 mg/kg) | KIDNEY Notable or abnormal, % (0.125 mg/kg) | LIVER Fattening, % (0.125 mg/kg) | LIVER Infiltration, % (0.125 mg/kg) | LIVER Notable or abnormal, % (0.125 mg/kg) | LUNG Lymphocytic infiltration, % (0.125 mg/kg) | LUNG Notable or abnormal, % (0.125 mg/kg) | LUNG Pulmonary edema, % (0.125 mg/kg) | PANCREAS Notable or abnormal, % (0.125 mg/kg) | SPLEEN Notable or abnormal, % (0.125 mg/kg) | STOMACH Notable or abnormal, % (0.125 mg/kg) | HEART Notable or abnormal, % (0.25 mg/kg) | INTESTINE, Large Notable or abnormal, % (0.25 mg/kg) | INTESTINE, Small Notable or abnormal, % (0.25 mg/kg) | KIDNEY Edema, % (0.25 mg/kg) | KIDNEY Notable or abnormal, % (0.25 mg/kg) | LIVER Fattening, % (0.25 mg/kg) | LIVER Infiltration, % (0.25 mg/kg) | LIVER Notable or abnormal, % (0.25 mg/kg) | LUNG Lymphocytic infiltration, % (0.25 mg/kg) | LUNG Notable or abnormal, % (0.25 mg/kg) | LUNG Pulmonary edema, % (0.25 mg/kg) | PANCREAS Notable or abnormal, % (0.25 mg/kg) | SPLEEN Notable or abnormal, % (0.25 mg/kg) | STOMACH Notable or abnormal, % (0.25 mg/kg) | HEART Notable or abnormal, % (0.5 mg/kg) | INTESTINE, Large Notable or abnormal, % (0.5 mg/kg) | INTESTINE, Small Notable or abnormal, % (0.5 mg/kg) | KIDNEY Edema, % (0.5 mg/kg) | KIDNEY Notable or abnormal, % (0.5 mg/kg) | LIVER Fattening, % (0.5 mg/kg) | LIVER Infiltration, % (0.5 mg/kg) | LIVER Notable or abnormal, % (0.5 mg/kg) | LUNG Lymphocytic infiltration, % (0.5 mg/kg) | LUNG Notable or abnormal, % (0.5 mg/kg) | LUNG Pulmonary edema, % (0.5 mg/kg) | PANCREAS Notable or abnormal, % (0.5 mg/kg) | SPLEEN Notable or abnormal, % (0.5 mg/kg) | STOMACH Notable or abnormal, % (0.5 mg/kg) | HEART Notable or abnormal, % (1 mg/kg) | INTESTINE, Large Notable or abnormal, % (1 mg/kg) | INTESTINE, Small Notable or abnormal, % (1 mg/kg) | KIDNEY Edema, % (1 mg/kg) | KIDNEY Notable or abnormal, % (1 mg/kg) | LIVER Fattening, % (1 mg/kg) | LIVER Infiltration, % (1 mg/kg) | LIVER Notable or abnormal, % (1 mg/kg)
100%: HEART Within normal limits, % (0.125 mg/kg) | INTESTINE, Large Within normal limits, % (0.125 mg/kg) | INTESTINE, Small Within normal limits, % (0.125 mg/kg) | KIDNEY Within normal limits, % (0.125 mg/kg) | LIVER Within normal limits, % (0.125 mg/kg) | LUNG Within normal limits, % (0.125 mg/kg) | PANCREAS Within normal limits, % (0.125 mg/kg) | SPLEEN Within normal limits, % (0.125 mg/kg) | STOMACH Within normal limits, % (0.125 mg/kg) | HEART Within normal limits, % (0.25 mg/kg) | INTESTINE, Large Within normal limits, % (0.25 mg/kg) | INTESTINE, Small Within normal limits, % (0.25 mg/kg) | KIDNEY Within normal limits, % (0.25 mg/kg) | LIVER Within normal limits, % (0.25 mg/kg) | LUNG Within normal limits, % (0.25 mg/kg) | PANCREAS Within normal limits, % (0.25 mg/kg) | SPLEEN Within normal limits, % (0.25 mg/kg) | STOMACH Within normal limits, % (0.25 mg/kg) | HEART Within normal limits, % (0.5 mg/kg) | INTESTINE, Large Within normal limits, % (0.5 mg/kg) | INTESTINE, Small Within normal limits, % (0.5 mg/kg) | KIDNEY Within normal limits, % (0.5 mg/kg) | LIVER Within normal limits, % (0.5 mg/kg) | LUNG Within normal limits, % (0.5 mg/kg) | PANCREAS Within normal limits, % (0.5 mg/kg) | SPLEEN Within normal limits, % (0.5 mg/kg) | STOMACH Within normal limits, % (0.5 mg/kg) | HEART Within normal limits, % (1 mg/kg) | INTESTINE, Large Within normal limits, % (1 mg/kg) | INTESTINE, Small Within normal limits, % (1 mg/kg) | KIDNEY Within normal limits, % (1 mg/kg)
10/10: HEART Within normal limits, No Exam (0.125 mg/kg) | INTESTINE, Large Within normal limits, No Exam (0.125 mg/kg) | INTESTINE, Small Within normal limits, No Exam (0.125 mg/kg) | KIDNEY Within normal limits, No Exam (0.125 mg/kg) | LIVER Within normal limits, No Exam (0.125 mg/kg) | LUNG Within normal limits, No Exam (0.125 mg/kg) | PANCREAS Within normal limits, No Exam (0.125 mg/kg) | SPLEEN Within normal limits, No Exam (0.125 mg/kg) | STOMACH Within normal limits, No Exam (0.125 mg/kg) | HEART Within normal limits, No Exam (0.25 mg/kg) | INTESTINE, Large Within normal limits, No Exam (0.25 mg/kg) | INTESTINE, Small Within normal limits, No Exam (0.25 mg/kg) | KIDNEY Within normal limits, No Exam (0.25 mg/kg) | LIVER Within normal limits, No Exam (0.25 mg/kg) | LUNG Within normal limits, No Exam (0.25 mg/kg) | PANCREAS Within normal limits, No Exam (0.25 mg/kg) | SPLEEN Within normal limits, No Exam (0.25 mg/kg) | STOMACH Within normal limits, No Exam (0.25 mg/kg) | HEART Within normal limits, No Exam (0.5 mg/kg) | INTESTINE, Large Within normal limits, No Exam (0.5 mg/kg) | INTESTINE, Small Within normal limits, No Exam (0.5 mg/kg) | KIDNEY Within normal limits, No Exam (0.5 mg/kg) | LIVER Within normal limits, No Exam (0.5 mg/kg) | LUNG Within normal limits, No Exam (0.5 mg/kg) | PANCREAS Within normal limits, No Exam (0.5 mg/kg) | SPLEEN Within normal limits, No Exam (0.5 mg/kg) | STOMACH Within normal limits, No Exam (0.5 mg/kg) | HEART Within normal limits, No Exam (1 mg/kg) | INTESTINE, Large Within normal limits, No Exam (1 mg/kg) | INTESTINE, Small Within normal limits, No Exam (1 mg/kg) | KIDNEY Within normal limits, No Exam (1 mg/kg)
0/10: HEART Notable or abnormal, No Exam (0.125 mg/kg) | INTESTINE, Large Notable or abnormal, No Exam (0.125 mg/kg) | INTESTINE, Small Notable or abnormal, No Exam (0.125 mg/kg) | KIDNEY Edema, No Exam (0.125 mg/kg) | KIDNEY Notable or abnormal, No Exam (0.125 mg/kg) | LIVER Fattening, No Exam (0.125 mg/kg) | LIVER Infiltration, No Exam (0.125 mg/kg) | LIVER Notable or abnormal, No Exam (0.125 mg/kg) | LUNG Lymphocytic infiltration, No Exam (0.125 mg/kg) | LUNG Notable or abnormal, No Exam (0.125 mg/kg) | LUNG Pulmonary edema, No Exam (0.125 mg/kg) | PANCREAS Notable or abnormal, No Exam (0.125 mg/kg) | SPLEEN Notable or abnormal, No Exam (0.125 mg/kg) | STOMACH Notable or abnormal, No Exam (0.125 mg/kg) | HEART Notable or abnormal, No Exam (0.25 mg/kg) | INTESTINE, Large Notable or abnormal, No Exam (0.25 mg/kg) | INTESTINE, Small Notable or abnormal, No Exam (0.25 mg/kg) | KIDNEY Edema, No Exam (0.25 mg/kg) | KIDNEY Notable or abnormal, No Exam (0.25 mg/kg) | LIVER Fattening, No Exam (0.25 mg/kg) | LIVER Infiltration, No Exam (0.25 mg/kg) | LIVER Notable or abnormal, No Exam (0.25 mg/kg) | LUNG Lymphocytic infiltration, No Exam (0.25 mg/kg) | LUNG Notable or abnormal, No Exam (0.25 mg/kg) | LUNG Pulmonary edema, No Exam (0.25 mg/kg) | PANCREAS Notable or abnormal, No Exam (0.25 mg/kg) | SPLEEN Notable or abnormal, No Exam (0.25 mg/kg) | STOMACH Notable or abnormal, No Exam (0.25 mg/kg) | HEART Notable or abnormal, No Exam (0.5 mg/kg) | INTESTINE, Large Notable or abnormal, No Exam (0.5 mg/kg) | INTESTINE, Small Notable or abnormal, No Exam (0.5 mg/kg) | KIDNEY Edema, No Exam (0.5 mg/kg) | KIDNEY Notable or abnormal, No Exam (0.5 mg/kg) | LIVER Fattening, No Exam (0.5 mg/kg) | LIVER Infiltration, No Exam (0.5 mg/kg) | LIVER Notable or abnormal, No Exam (0.5 mg/kg) | LUNG Lymphocytic infiltration, No Exam (0.5 mg/kg) | LUNG Notable or abnormal, No Exam (0.5 mg/kg) | LUNG Pulmonary edema, No Exam (0.5 mg/kg) | PANCREAS Notable or abnormal, No Exam (0.5 mg/kg) | SPLEEN Notable or abnormal, No Exam (0.5 mg/kg) | STOMACH Notable or abnormal, No Exam (0.5 mg/kg) | HEART Notable or abnormal, No Exam (1 mg/kg) | INTESTINE, Large Notable or abnormal, No Exam (1 mg/kg) | INTESTINE, Small Notable or abnormal, No Exam (1 mg/kg) | KIDNEY Edema, No Exam (1 mg/kg) | KIDNEY Notable or abnormal, No Exam (1 mg/kg) | LIVER Fattening, No Exam (1 mg/kg) | LIVER Infiltration, No Exam (1 mg/kg) | LIVER Notable or abnormal, No Exam (1 mg/kg)
